The values below come from ChEMBL document CHEMBL1141891, “Crystallographic determination of stereochemistry of biologically active 2'',3''-dibromo-7-epi-10-deacetylcephalomannine” (Bioorg Med Chem Lett, 2005).

Holding throughout (assay type): functional, cell-based
One test has as its system A2780. Description: Inhibitory concentration against A2780 proliferation after 72 hr. Conditions: Homo sapiens, A2780, 72 h.
Another test concerns MCF7. The experiment in a line: Inhibitory concentration required to inhibit MCF-7 Cell line growth on continuous exposure time of 72 h. Conditions: Homo sapiens, MCF7, 72 h.
Another test deals with A549. The experiment in a line: Inhibitory concentration required to inhibit A549 Cell line growth on continuous exposure time of 72 h. To be noted: Homo sapiens, A549, 72 h.

≈ marks a conversion by molar mass, not a printed value.

In general, IC50 refers to the concentration that gives 50% inhibition. High values mean a need for much substance, low ones inhibition by little substance. In the test with A2780, `CC(=O)O[C@H]1C(=O)[C@@]2(C)[C@H]([C@H](OC(=O)c3ccccc3)[C@]3(O)C[C@H](OC(=O)[C@H](O)[C@@H](NC(=O)c4ccccc4)c4ccccc4)C(C)=C1C3(C)C)[C@]1(OC(C)=O)CO[C@@H]1C[C@@H]2O` [PACLITAXEL] returned an IC50 of 6.76 ng/mL (≈ 7.92 nM).

Consider `CC(=O)O[C@@]12CO[C@@H]1C[C@@H](O)[C@@]1(C)C(=O)[C@H](O)C3=C(C)[C@@H](OC(=O)[C@H](O)[C@@H](NC(=O)[C@@](C)(Br)[C@H](C)Br)c4ccccc4)C[C@@](O)([C@@H](OC(=O)c4ccccc4)C12)C3(C)C` (some centres not stated), for which the IC50 in the test on A2780 was 2.13 ng/mL (≈ 2.24 nM); in the test with MCF7 it was 4.75 ng/mL (≈ 5 nM); in the test with A549, 0.013 µg/mL (≈ 13.7 nM).

Regarding `CC(=O)O[C@@]12CO[C@@H]1C[C@@H](O)[C@@]1(C)C(=O)[C@H](O)C3=C(C)[C@@H](OC(=O)[C@H](O)[C@@H](NC(=O)[C@](C)(Br)[C@@H](C)Br)c4ccccc4)C[C@@](O)([C@@H](OC(=O)c4ccccc4)C12)C3(C)C` (some centres not stated), the IC50 worked out at 4.84 ng/mL (≈ 5.1 nM) in the test with A2780, 7.1 ng/mL (≈ 7.48 nM) in the test on MCF7 and 0.0269 µg/mL (≈ 28.3 nM) in the test with A549.
